{"source": "patent US20250312272A1", "about": "“PHARMACEUTICAL FORMULATIONS FOR ORAL ADMINISTRATION AND METHODS OF MAKING AND USING THE SAME” (Aaryen Pharma LLC, priority 2024, published 2025)", "origin": "cited, not measured here", "note": "Where a name gives a salt, the structure may show the parent alone."}
{"compound": "COc1ccccc1OCC(O)CO", "note": "(centres unmarked) [guaifenesin]", "values": [{"measurement": "solubility (descriptive term of Table 1)", "setting": "in water", "value": "sparingly soluble"}]}
{"compound": "COc1ccc2c(c1)[C@]13CCCC[C@@H]1[C@H](C2)N(C)CC3", "note": "[dextromethorphan hydrobromide]", "values": [{"measurement": "solubility in water", "value": "water soluble"}]}
